Measured values: patent US7365160B2, “Mutated constitutively active nuclear orphan receptor” (The United States of America as represented by the …, priority 2002, dated 2008)

Tests used:
mCAR [1] = target: T1, mCAR (Mus musculus, UniProt O35627); experiment: cell-based transfection assay, (NR1)5-tk-luciferase reporter in HepG2 cells, wild-type mCAR; conditions: for degree of repression: not affected by the mutation of Thr350
T1 construct: mCAR and hCAR expression vectors were constructed by cloning an entire mCAR; expressed in transfected cells; host or cells: HepG2
T1 sequence (O35627 1-358): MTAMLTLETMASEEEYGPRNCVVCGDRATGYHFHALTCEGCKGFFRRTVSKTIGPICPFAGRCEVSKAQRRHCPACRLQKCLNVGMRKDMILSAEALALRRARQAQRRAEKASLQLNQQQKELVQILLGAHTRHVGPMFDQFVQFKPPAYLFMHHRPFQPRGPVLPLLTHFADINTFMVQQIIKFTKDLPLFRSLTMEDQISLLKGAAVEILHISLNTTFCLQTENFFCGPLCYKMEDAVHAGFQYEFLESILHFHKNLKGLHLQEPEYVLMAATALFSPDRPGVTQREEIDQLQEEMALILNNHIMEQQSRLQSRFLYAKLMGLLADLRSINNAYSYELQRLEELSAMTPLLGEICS
Text: mCAR and hCAR expression vectors were constructed by cloning an entire mCAR (GenBank Accession No: AF009327, deposited on Jul. 22, 1997; SEQ ID NO: 15) or hCAR (GenBank Accession No: Z30425, deposited on Mar. 8, 1994; SEQ ID NO: 17) coding sequence into BamHI and XhoI sites of pCR3 plasmid as described previously (Sueyoshi et al., J Biol Chem 274:6043-6, 1999). Polymerase chain reaction (PCR) was used to amplify the desired hCAR or mCAR fragment from the plasmid. The amplified fragments used for the chimeras were nucleotides encoding amino acids: 1 to 86 of mCAR and 77 to 348 of hCAR (mhh), 1 to 116 of mCAR and 107 to 348 of hCAR (mmh), 1 to 76 of hCAR and 87 to 358 of mCAR (hmm), 1 to 106 of hCAR and 117 to 358 of mCAR (hhm). These fragments were PCR amplified using pfu polymerase and enzymatically phosphorylated primers. The amplified fragments were ligated, and a second PCR amplification was performed on the ligated DNA with the primers for 5′ and 3′ end of the chimeric DNA. The resulting second PCR products were cloned into a pCR3 vector (Invitrogen) with newly created BamHI and XhoI sites at the 5′ and the 3′ ends, respectively.
A mouse SRC-1 cDNA corresponding to amino acid residues 633 to 1450 of SRC-1 (GenBank Accession No: U64828), was amplified and cloned into the EcoRI and Hind III site of pcDNA3.1/myc-His(−)B plasmid (Invitrogen), thereby generating the SRC-1-expression plasmid pcDNA3.1-SRC-1. Wild-type mCAR or mCART350M was co-transfected with or without the SRC-1-expression plasmid (0.1 μg) into HepG2 cells.
The KN-62 repression was examined with and without the co-expression of SRC-1 (EXAMPLE 3).

[2] = system: chimeric receptors hmm and hhm; experiment: luciferase reporter assay in HepG2 cells, chimeric receptors with mouse LBD; type: cell-based, mouse/human; conditions: chimeras hmm and hhm
mCART350M = target: T2, mCART350M (Mus musculus, UniProt O35627, T350M); experiment: luciferase reporter assay in HepG2 cells, mutant mCART350M; type: cell-based
T2 construct: mCAR and hCAR expression vectors were constructed by cloning an entire mCAR; expressed in transfected cells; host or cells: HepG2
T2 sequence (O35627 1-358 T350M): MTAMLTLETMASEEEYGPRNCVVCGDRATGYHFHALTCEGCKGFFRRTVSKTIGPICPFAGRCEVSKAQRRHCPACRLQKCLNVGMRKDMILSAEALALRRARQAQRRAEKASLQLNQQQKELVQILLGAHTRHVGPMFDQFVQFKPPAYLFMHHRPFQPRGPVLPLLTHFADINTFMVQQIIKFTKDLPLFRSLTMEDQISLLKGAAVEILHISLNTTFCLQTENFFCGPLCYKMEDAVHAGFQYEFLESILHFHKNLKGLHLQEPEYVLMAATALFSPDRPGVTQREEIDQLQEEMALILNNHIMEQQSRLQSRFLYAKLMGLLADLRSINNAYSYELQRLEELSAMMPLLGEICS
Method: The transfected cells were then treated, and luciferase assays performed as described in EXAMPLE 1.
To determine if this effect could be disrupted by mutating Thr350 to a Met, the mCART350M mutant described in EXAMPLE 2 was used. The KN-62 repression was examined with and without the co-expression of SRC-1 (EXAMPLE 3).

mCAR [3] = target: T1, mCAR; conditions: Kawamoto et al. 2000; cited from earlier work
hCAR = target: T3, hCAR (Homo sapiens, UniProt Q14994); conditions: Kawamoto et al. 2000; cited from earlier work
T3 construct: expressed in transfected cells; host or cells: HepG2
T3 sequence (Q14994 1-348 isoform Q14994-2): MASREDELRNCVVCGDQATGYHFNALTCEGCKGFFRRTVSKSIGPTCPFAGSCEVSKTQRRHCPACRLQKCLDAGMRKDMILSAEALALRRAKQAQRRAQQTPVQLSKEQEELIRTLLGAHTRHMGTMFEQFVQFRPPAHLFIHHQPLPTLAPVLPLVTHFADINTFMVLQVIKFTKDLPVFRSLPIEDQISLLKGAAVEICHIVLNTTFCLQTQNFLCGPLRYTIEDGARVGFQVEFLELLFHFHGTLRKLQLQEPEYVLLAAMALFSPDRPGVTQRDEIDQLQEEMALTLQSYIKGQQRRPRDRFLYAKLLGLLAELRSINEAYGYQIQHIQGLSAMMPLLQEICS

mCAR L352A = target: T4, mCAR L352A (Mus musculus, UniProt O35627, L352A); experiment: luciferase reporter gene activation assay (PBREM) in HepG2 cells, mCAR L352A mutant; type: cell-based; conditions: only in the presence of exogenous SRC-1
T4 construct: mCAR and hCAR expression vectors were constructed by cloning an entire mCAR; expressed in transfected cells; host or cells: HepG2
T4 sequence (O35627 1-358 L352A): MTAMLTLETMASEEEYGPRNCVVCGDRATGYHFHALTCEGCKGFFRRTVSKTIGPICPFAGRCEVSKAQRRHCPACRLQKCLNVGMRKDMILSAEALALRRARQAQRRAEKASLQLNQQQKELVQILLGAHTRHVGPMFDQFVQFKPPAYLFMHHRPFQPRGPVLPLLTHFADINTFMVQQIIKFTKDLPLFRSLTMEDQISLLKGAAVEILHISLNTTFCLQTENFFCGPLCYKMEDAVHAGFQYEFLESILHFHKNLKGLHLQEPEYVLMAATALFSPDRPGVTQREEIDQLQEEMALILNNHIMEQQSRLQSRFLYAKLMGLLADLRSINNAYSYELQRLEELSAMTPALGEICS
Text: To examine the role of Leu352 in mCAR activity, site-directed mutagenesis was used as described in EXAMPLES 2 and 6.

[4] = system: chimeric receptors mh159, mh224, mh315, mh345; experiment: luciferase reporter assay in HepG2 cells, chimeric receptors within the LBD; type: cell-based, mouse/human
[5] = target: mCAR T350M mutant (mouse); experiment: cell-based or functional assay
[6] = target: wild-type mouse CAR (mCAR; nuclear orphan receptor constitutively active receptor / constitutive androstane receptor) (mouse); experiment: cell-based or functional assay
[7] = system: PB-responsive enhancer module (PBREM) luciferase reporter; experiment: constitutive activity of mutated CAR in luciferase reporter gene activation assay in HepG2 cells; conditions: mCAR mutants versus mCAR

CN([C@@H](Cc1ccc(OS(=O)(=O)c2cccc3cnccc23)cc1)C(=O)N1CCN(c2ccccc2)CC1)S(=O)(=O)c1cccc2cnccc12 [KN-62]
degree of repression (mCAR [1]; in the absence of SRC-1): 20-30% | degree of repression (mCAR [1]; in the presence of co-expressed SRC-1): 80% | repression of receptor activity by KN-62 (mCAR [1]; wild-type mCAR, KN-62 0.1-10 μM, with and without SRC-1): similarly repressed | repression of chimera activity [2]: 2-4 fold | repression of receptor activity by KN-62 (mCART350M; mCART350M, KN-62 0.1-10 μM, with and without SRC-1): similarly repressed | repression of constitutive activity of mCAR (mCAR [3]): represses | repression of constitutive activity of hCAR (hCAR): not hCAR

CN(C)CCCN1c2ccccc2Sc2ccc(Cl)cc21 [chloropromazine]
activation of L352A mutant (mCAR L352A): activated

CC(=O)[C@H]1CC[C@H]2[C@@H]3CCC4=CC(=O)CC[C@]4(C)[C@H]3CC[C@]12C [progesterone]
repression of chimeric receptor activity [4]: None of these chimeric receptors was repressed

C[C@]12CC[C@H]3[C@@H](CCC4=CC(=O)CC[C@@]43C)[C@@H]1CC[C@@H]2O [testosterone]
repression of mCAR activity (luciferase reporter) (mCAR [1]; wild-type mCAR, HepG2 cells, 24 hours treatment): repressed | repression of mCART350M activity (mCART350M; HepG2 cells): not the T350M mutant

mouse steroid receptor co-activator 1 (SRC-1), amino acid residues 633 to 1450 (from UniProt P70365 633-1447)
trans-activation activity (NR1-luciferase reporter gene activity in co-transfected HepG2 cells, relative to DMSO-treated cells) [5]: 3 to 4 fold | trans-activation activity (NR1-luciferase reporter gene activity in co-transfected HepG2 cells, relative to DMSO-treated cells) [6]: 3 to 4 fold

B1: T176V: mCAR with single mutation of Thr176 to valine (protein, UniProt O35627 1-358, looked up, variant T176V)
Nuclear receptor subfamily 1 …: MTAMLTLETMASEEEYGPRNCVVCGDRATGYHFHALTCEGCKGFFRRTVSKTIGPICPFAGRCEVSKAQRRHCPACRLQKCLNVGMRKDMILSAEALALRRARQAQRRAEKASLQLNQQQKELVQILLGAHTRHVGPMFDQFVQFKPPAYLFMHHRPFQPRGPVLPLLTHFADINVFMVQQIIKFTKDLPLFRSLTMEDQISLLKGAAVEILHISLNTTFCLQTENFFCGPLCYKMEDAVHAGFQYEFLESILHFHKNLKGLHLQEPEYVLMAATALFSPDRPGVTQREEIDQLQEEMALILNNHIMEQQSRLQSRFLYAKLMGLLADLRSINNAYSYELQRLEELSAMTPLLGEICS
constitutive activity of mCAR [7]: decreased

B2: T176L: mCAR with single mutation of Thr176 to leucine (protein, UniProt O35627 1-358, looked up, variant T176L)
Nuclear receptor subfamily 1 …: MTAMLTLETMASEEEYGPRNCVVCGDRATGYHFHALTCEGCKGFFRRTVSKTIGPICPFAGRCEVSKAQRRHCPACRLQKCLNVGMRKDMILSAEALALRRARQAQRRAEKASLQLNQQQKELVQILLGAHTRHVGPMFDQFVQFKPPAYLFMHHRPFQPRGPVLPLLTHFADINLFMVQQIIKFTKDLPLFRSLTMEDQISLLKGAAVEILHISLNTTFCLQTENFFCGPLCYKMEDAVHAGFQYEFLESILHFHKNLKGLHLQEPEYVLMAATALFSPDRPGVTQREEIDQLQEEMALILNNHIMEQQSRLQSRFLYAKLMGLLADLRSINNAYSYELQRLEELSAMTPLLGEICS
constitutive activity of mCAR [7]: decreased

B3: L352A: mCAR with Ala substitution of Leu352 (protein, UniProt O35627 1-358, looked up, variant L352A)
Nuclear receptor subfamily 1 …: MTAMLTLETMASEEEYGPRNCVVCGDRATGYHFHALTCEGCKGFFRRTVSKTIGPICPFAGRCEVSKAQRRHCPACRLQKCLNVGMRKDMILSAEALALRRARQAQRRAEKASLQLNQQQKELVQILLGAHTRHVGPMFDQFVQFKPPAYLFMHHRPFQPRGPVLPLLTHFADINTFMVQQIIKFTKDLPLFRSLTMEDQISLLKGAAVEILHISLNTTFCLQTENFFCGPLCYKMEDAVHAGFQYEFLESILHFHKNLKGLHLQEPEYVLMAATALFSPDRPGVTQREEIDQLQEEMALILNNHIMEQQSRLQSRFLYAKLMGLLADLRSINNAYSYELQRLEELSAMTPALGEICS
constitutive activity of mCAR [7]: decreased

B4: SRC-1: co-activator steroid receptor co-activator 1, mouse residues 633 to 1450 expressed from pcDNA3.1-SRC-1 (protein)
chain: TSHKLVQLLTTTAEQQLRHADIDTSCKDVLSCTGTSSSASSNPSGGTCPSSHSSLTERHKILHRLLQEGSPSDITTLSVEPEKKDSVPASTAVSVSGQSQGSASIKLELDAAKKKESKDHQLLRYLLDKDEKDLRSTPNLCLDDVKVKVEKKEQMDPCNTNPTPMTKPAPEEVKLESQSQFTADLDQFDQLLPTLEKAAQLPSLCETDRMDGAVTGVSIKAEVLPASLQPTTARAAPRLSRLPELELEAIDNQFGQPGAGDQIPWANNTLTTINQNKPEDQCISSQLDELLCPPTTVEGRNDEKALLEQLVSFLSGKDETELAELDRALGIDKLVQGGGLDVLSERFPPQQATPPLMMEDRPTLYSQPYSSPSPTAGLSGPFQGMVRQKPSLGAMPVQVTPPRGTFSPNMGMQPRQTLNRPPAAPNQLRLQLQQRLQGQQQLMHQNRQAILNQFAANAPVGMNMRSGMQQQITPQPPLNAQMLAQRQRELYSQQHRQRQIIQQQRAMLMRHQSFGNNIPPSSGLPVQMGTPRLPQGAPQQFPYPPNYGTNPGTPPASTSPFSQLAANPEASLATRSSMVNRGMAGNMGGQFGAGISPQMQQNVFQYPGPGLVPQGEATFAPSLSPGSSMVPMPVPPPQSSLLQQTPPTSGYQSPDMKAWQQGTMGNNNVFSQAVQSQPAPAQPGVYNNMSITVSMAGGNANIQNMNPMMGQMQMSSLQMPGMNTVCSEQMNDPALRHTGLYCNQLSSTDLLKTDADGNQQVQQVQVFADVQCTVNLVGGDPYLNQPGPLGTQKPTSGPQTPQAQQKSLLQQLLTE
increase of trans-activation activity by co-expression (mCAR [1]; wild-type mCAR, relative to DMSO-treated cells): 3- to 4 fold | increase of trans-activation activity by co-expression (mCART350M; mCART350M, relative to DMSO-treated cells): 3- to 4 fold
